Results published in patent US9663511B2, “Sphingosine 1-phosphate receptor antagonists” (ARROYO BIOSCIENCES, LLC, priority 2012, dated 2017).
“And” between values parts separate entries of the source, which are not always exact repeats. Equal values may be shown once. Read-outs that look alike come from different tables or passages of the source. Values belong to the compound of their own block, whether it stands above or below them.

Experiments:
[1] = In vitro plasma protein binding; assay type: in vitro ADME, mouse
in vitro = details: mouse, microsomes, NADPH-dependent Clint (microsomal intrinsic clearance)
S1P2 receptor = S1P2 receptor (Homo sapiens (Human), UniProt O95136); assay: Antagonist assay (FLIPR TETRA, inhibition of reference agonist EC80) on S1P2; assay type: cell-based; details: tested as the citrate salt
Description: (§1) Antagonist percentage inhibition determinations were obtained by assaying sample compounds and referencing the control (EC80) wells for each profiled (GPCR) which evaluated binding to S1P2 and S1P5 receptors. The samples were run using a single addition assay protocol. The protocol design is as follows.
(§2) Unless specified otherwise, the sample compounds were diluted in 100% anhydrous DMSO including all dilutions. The compounds were tested as the citrate salt (1 equivalent per molecule). If the sample compound is provided in a different solvent all master stock dilutions are performed in the specified solvent. All control wells contained identical solvent final concentrations as the sample compound wells.
(§3) The sample compounds were transferred from a master stock solution into a daughter plate that was used in the assay. Each sample compound was diluted into an assay buffer (1×HBSS with 20 mM HEPES, 2.5 mM Probenecid, and 0.4% Free Fatty Acid BSA) at an appropriate concentration to obtain final specified concentrations.
(§4) Using the EC80 values that were determined real-time, stimulated all pre-incubated sample compounds and reference antagonists (if applicable) were compared with the EC80 values of reference agonist. These were read for 180 seconds using the FLIPR^TETRA (This assay added reference agonist to respective wells-then fluorescences measurements were collected to calculate IC50 values). All plates were subjected to appropriate baseline corrections. Once baseline corrections were processed, maximum fluorescence values were exported and data manipulated to calculate percentage activation, percentage inhibition and Z′.

S1P5 receptor = S1P5 receptor (Homo sapiens (Human), UniProt Q9H228); assay: Antagonist assay (FLIPR TETRA, inhibition of reference agonist EC80) on S1P5; assay type: cell-based; details: tested as the citrate salt
Description: as §1, §2, §3, §4

[2] = Blood concentrations and pharmacokinetics after 1 mg/kg i.v. in mice; assay type: in vivo, mouse; details: for pharmacokinetics / blood levels following intravenous injection in mice (in words): comparison between compounds
Description: 1 mg/kg of the compound was injected by IV and blood was withdrawn at the times in table 1. The amount of starting compound was quantified by a standard curve using MS/MS determinations.

[3] = Microsomal intrinsic clearance; details: mouse, liver microsomes, mouse microsomes, test conc. 1 μM

S1P2 receptor, sequence (O95136 whole entry): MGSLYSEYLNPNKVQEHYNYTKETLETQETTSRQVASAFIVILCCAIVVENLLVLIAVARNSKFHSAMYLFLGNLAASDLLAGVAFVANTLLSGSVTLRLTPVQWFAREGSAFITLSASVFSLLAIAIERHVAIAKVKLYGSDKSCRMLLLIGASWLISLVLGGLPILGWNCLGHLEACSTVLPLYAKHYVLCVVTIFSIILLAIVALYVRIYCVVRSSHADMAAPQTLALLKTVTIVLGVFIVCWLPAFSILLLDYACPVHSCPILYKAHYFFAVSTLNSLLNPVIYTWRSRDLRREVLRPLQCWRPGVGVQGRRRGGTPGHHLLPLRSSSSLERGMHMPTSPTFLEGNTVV
S1P5 receptor, sequence (Q9H228 whole entry): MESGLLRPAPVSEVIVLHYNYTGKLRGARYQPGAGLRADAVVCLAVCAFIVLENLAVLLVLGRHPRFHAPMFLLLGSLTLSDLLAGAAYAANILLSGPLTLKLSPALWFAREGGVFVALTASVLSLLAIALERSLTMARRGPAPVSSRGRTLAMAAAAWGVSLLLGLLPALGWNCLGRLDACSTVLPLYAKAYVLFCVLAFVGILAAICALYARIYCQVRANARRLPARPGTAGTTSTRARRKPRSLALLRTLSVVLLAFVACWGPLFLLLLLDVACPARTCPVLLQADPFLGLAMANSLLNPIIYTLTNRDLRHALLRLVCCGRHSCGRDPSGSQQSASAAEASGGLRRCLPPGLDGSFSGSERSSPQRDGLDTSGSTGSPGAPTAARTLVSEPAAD

mean fraction bound (%) ([1]; mouse, 5 nM): 92.1%
microsomal CLint at 1 μM (in vitro): 15 µL/min/mg
Structure (SMILES): CC(=O)CC(c1ccccc1)c1c(O)c2ccccc2oc1=O (stereo not drawn) [Warfarin, reference compound]

IC50 (S1P2 receptor): 1.2 nM
IC50 (S1P5 receptor): 2.2 nM
AUC0-inf ([2]; mouse blood, individual mice): 92.4 ng·h/mL and 192 ng·h/mL
AUC0-inf Extrapolated ([2]; mouse blood, individual mice): 19.3% and 63.8%
AUC0-tlast ([2]; mouse blood, individual mice): 74.6 ng·h/mL and 69.5 ng·h/mL
AUMC0-inf ([2]; mouse blood, individual mice): 604 h^2*ng/mL and 9010 h^2*ng/mL
AUMC0-inf Extrapolated ([2]; mouse blood, individual mice): 74.1% and 98.2%
C0 ([2]; mouse blood, individual mice): 262 ng/mL and 251 ng/mL
CL ([2]; mouse blood, individual mice): 180 mL/min/kg and 86.7 mL/min/kg
MRT0-inf ([2]; mouse blood, individual mice): 6.53 h and 46.9 h
MRT0-tlast ([2]; mouse blood, individual mice): 0.236 h and 2.10 h and 2.39 h
Terminal half-life ([2]; mouse blood, individual mice): 9.08 h and 41.7 h
Vss ([2]; mouse blood, individual mice): 70.7 L/kg and 244 L/kg
AUC0-inf Extrapolated, Mean S.D. ([2]; mouse blood, mean): 41.5 (n = 2) %
AUMC0-inf Extrapolated, Mean S.D. ([2]; mouse blood, mean): 86.1 (n = 2) %
AUMC0-inf, Mean S.D. ([2]; mouse blood, mean): 4810 (n = 2) h^2*ng/mL
AUMC0-tlast, Mean S.D. ([2]; mouse blood, mean): 112 ± 86.0 h^2*ng/mL
C0, Mean S.D. ([2]; mouse blood, mean): 295 ± 66.2 ng/mL
Blood Concentrations ([2]; mouse, 5 min, individual mice, LLOQ = 1 ng/mL): 152 ng/mL and 143 ng/mL
Blood Concentrations ([2]; mouse, 0.25 h, individual mice, LLOQ = 1 ng/mL): 51.2 ng/mL and 46.3 ng/mL
Blood Concentrations ([2]; mouse, 0.5 h, individual mice, LLOQ = 1 ng/mL): 22.8 ng/mL and 17.1 ng/mL
Blood Concentrations ([2]; mouse, 1 h, individual mice, LLOQ = 1 ng/mL): 7.90 ng/mL and 6.44 ng/mL
Blood Concentrations ([2]; mouse, 2 h, individual mice, LLOQ = 1 ng/mL): 1.13 ng/mL and 3.12 ng/mL and 2.96 ng/mL
Blood Concentrations ([2]; mouse, 4 h, individual mice, LLOQ = 1 ng/mL): BLQ and 1.98 ng/mL
Blood Concentrations ([2]; mouse, 6 h, individual mice, LLOQ = 1 ng/mL): BLQ and 2.25 ng/mL
Blood Concentrations ([2]; mouse, 12 h, individual mice, LLOQ = 1 ng/mL): BLQ and 2.04 ng/mL
pharmacokinetics / blood levels following intravenous injection in mice (in words) ([2]; mouse): substantially improved pharmacokinetics
pharmacokinetics / blood levels following intravenous injection in mice (in words) ([2]; mouse, listed as compound 1): highest drug blood levels over time
AUC(0-t) ([2]; mouse, whole blood, iv, 1 mg/kg, mouse blood, individual mice, read-out: AUC0-tlast): 53.9 ng·h/mL
C0 ([2]; mouse, whole blood, iv, 1 mg/kg, mouse blood, individual mice, read-out: C0): 371 ng/mL
AUC0-inf ([2]; mouse, whole blood, iv, 1 mg/kg, mouse blood, mean, read-out: AUC0-inf, Mean S.D.): 142 ng·h/mL
AUC(0-t) ([2]; mouse, whole blood, iv, 1 mg/kg, mouse blood, mean, read-out: AUC0-tlast, Mean S.D.): 66 ± 10.8 ng·h/mL
clearance ([2]; mouse, whole blood, iv, 1 mg/kg, mouse blood, mean, read-out: CL, Mean S.D. (converted)): 134 mL/min/kg
MRT inf ([2]; mouse, whole blood, iv, 1 mg/kg, mouse blood, mean, read-out: MRT0-inf, Mean S.D.): 26.7 h
MRT last ([2]; mouse, whole blood, iv, 1 mg/kg, mouse blood, mean, read-out: MRT0-tlast, Mean S.D.): 1.58 h
half-life ([2]; mouse, whole blood, iv, 1 mg/kg, mouse blood, mean, read-out: Terminal half-life, Mean S.D. (converted)): 25.4 h
Vd ([2]; mouse, whole blood, iv, 1 mg/kg, mouse blood, mean, read-out: Vss, Mean S.D.): 157 L/kg
concentration at 5 min ([2]; mouse, whole blood, iv, 1 mg/kg, mouse, 5 min, individual mice, LLOQ = 1 ng/mL, read-out: Blood Concentrations): 188 ng/mL
concentration at 5 min ([2]; mouse, whole blood, iv, 1 mg/kg, mouse, 5 min, mean of 3 mice, read-out: Blood Concentrations, Mean S.D.): 161 ± 23.8 ng/mL
concentration at 0.25 h ([2]; mouse, whole blood, iv, 1 mg/kg, mouse, 0.25 h, individual mice, LLOQ = 1 ng/mL, read-out: Blood Concentrations): 48.3 ng/mL
concentration at 0.25 h ([2]; mouse, whole blood, iv, 1 mg/kg, mouse, 0.25 h, mean of 3 mice, read-out: Blood Concentrations, Mean S.D.): 48.6 ± 2.46 ng/mL
concentration at 0.5 h ([2]; mouse, whole blood, iv, 1 mg/kg, mouse, 0.5 h, individual mice, LLOQ = 1 ng/mL, read-out: Blood Concentrations): 14.9 ng/mL
concentration at 0.5 h ([2]; mouse, whole blood, iv, 1 mg/kg, mouse, 0.5 h, mean of 3 mice, read-out: Blood Concentrations, Mean S.D.): 18.3 ± 4.08 ng/mL
concentration at 1 h ([2]; mouse, whole blood, iv, 1 mg/kg, mouse, 1 h, individual mice, LLOQ = 1 ng/mL, read-out: Blood Concentrations): 5.11 ng/mL
concentration at 1 h ([2]; mouse, whole blood, iv, 1 mg/kg, mouse, 1 h, mean of 3 mice, read-out: Blood Concentrations, Mean S.D.): 6.48 ± 1.4 ng/mL
concentration at 2 h ([2]; mouse, whole blood, iv, 1 mg/kg, mouse, 2 h, mean of 3 mice, read-out: Blood Concentrations, Mean S.D.): 2.4 ± 1.11 ng/mL
concentration at 4 h ([2]; mouse, whole blood, iv, 1 mg/kg, mouse, 4 h, individual mice, LLOQ = 1 ng/mL, read-out: Blood Concentrations): 2.22 ng/mL
concentration at 4 h ([2]; mouse, whole blood, iv, 1 mg/kg, mouse, 4 h, mean (n = 2 for Cmpd-1), read-out: Blood Concentrations, Mean S.D.): 2.1 ng/mL
concentration at 6 h ([2]; mouse, whole blood, iv, 1 mg/kg, mouse, 6 h, individual mice, LLOQ = 1 ng/mL, read-out: Blood Concentrations): 2.55 ng/mL
concentration at 6 h ([2]; mouse, whole blood, iv, 1 mg/kg, mouse, 6 h, mean (n = 2 for Cmpd-1), read-out: Blood Concentrations, Mean S.D.): 2.4 ng/mL
concentration at 12 h ([2]; mouse, whole blood, iv, 1 mg/kg, mouse, 12 h, individual mice, LLOQ = 1 ng/mL, read-out: Blood Concentrations): 1.36 ng/mL
concentration at 12 h ([2]; mouse, whole blood, iv, 1 mg/kg, mouse, 12 h, mean (n = 2 for Cmpd-1), read-out: Blood Concentrations, Mean S.D.): 1.7 ng/mL
mean fraction bound (%) ([1]; mouse plasma, test concentration 5 nM): 99.9%
microsomal CLint at 1 μM ([3]; NADPH-dependent Clint (microsomal intrinsic clearance)): 1170 µL/min/mg
half-life at 1 μM ([3]; NADPH-dependent T1/2 (half-life)): 0.0333 h
microsomal CLint at 1 μM ([3]; NADPH-free Clint (microsomal intrinsic clearance)): 48 µL/min/mg
half-life at 1 μM ([3]; NADPH-free T1/2 (half-life)): 0.8 h
Structure (SMILES): C=CCn1nc(C)c2c(C(C)C)cc(NNC(=O)Nc3cc(Cl)nc(Cl)c3)nc21 [Compound 1]
AUMC0-tlast ([2]; mouse blood, individual mice): 12.7 h^2*ng/mL and 157 h^2*ng/mL and 166 h^2*ng/mL
